According to US20230141569A1, “FLUORESCENT DYE, AND PREPARATION METHOD AND USES THEREOF” (FLUORESCENCE DIAGNOSIS (SHANGHAI) BIOTECH COMPANY LTD., priority 2020, published 2023):

Columns and labels:
RNA aptamer [1] = experiment: Labeling intracellular RNA aptamer in cells (Test Example 4, FIG. 20A/20B); assay type: cell-based; settings: for fluorescence of cells expressing the RNA aptamer: FIG. 20A; for fluorescence of cells not expressing the RNA aptamer: FIG. 20B
From the text: FIGS. 20A and 20B are the application of molecular rotors IV-1, IV-2, IV-3, IV-4, IV-5, IV-6, IV-17, IV-18, IV-19, IV-20, IV-21, IV-22 in labeling intracellular RNA aptamer, wherein FIG. 20A are cells expressing the target RNA aptamer, and FIG. 20B are cells not expressing the target RNA aptamer;

RNA aptamer [2] = experiment: Optical properties after binding to RNA aptamer (Test Example 4); assay type: biochemical; settings: for Em/nm / Ex/nm / ε / QY (−): after binding to RNA aptamer; for QY (−): relative method with Rhodamine 6G as the standard; for compound fluorescence after binding to RNA aptamer: excited at a suitable wavelength
[3] = Fluorescence emission at different viscosity conditions, diethanol-glycerol mixed solution (Test Example 2); assay type: physicochemical; settings: 1×10^−5 M, excited at 480 nm
[4] = Viscosity response: fluorescence in glycerin vs methanol (Test Example 1); assay type: physicochemical; settings: final concentration 1×10^−5 M; for Glycerin/Methanol Fluorescence Intensity Ratio: excited at maximum excitation wavelength of each dye; for Maximum Excitation Wavelength (nm): glycerin and methanol
mRNA of ACTB = experiment: Flow detection of mRNA labeling in 293T/17 cells (Test Example 5); assay type: cell-based; settings: 0.2 μM in PBS, 5 minutes incubation; for background fluorescence in flow detection: 293T/17 control cells
From the text: FIGS. 21A and 21B are a flow detection diagram for molecular rotors IV-21 and IV-41 for labeling mRNA.

| Structure (SMILES) | fluorescence of cells expressing the RNA aptamer (RNA aptamer [1]) | fluorescence of cells not expressing the RNA aptamer (RNA aptamer [1]) | Em/nm (RNA aptamer [2]) [nm] | Ex/nm (RNA aptamer [2]) [nm] | ε (RNA aptamer [2]) [M⁻¹ cm⁻¹] | QY (−) (RNA aptamer [2]) | compound fluorescence after binding to RNA aptamer (RNA aptamer [2]) | fluorescence intensity at different viscosity conditions [3] | Glycerin/Methanol Fluorescence Intensity Ratio [4] | Maximum Excitation Wavelength (nm) [4] [nm] | labeling of mRNA of ACTB in cell lines expressing target RNA (mRNA of ACTB; 293T/17, flow detection) | background fluorescence in flow detection (mRNA of ACTB) |
| --- | --- | --- | --- | --- | --- | --- | --- | --- | --- | --- | --- | --- |
| CN1C(=O)/C(=C/c2ccc(N(C)CCO)cc2)N=C1/C=C/c1ccc(O)cc1 [IV-20] | bright fluorescence | no fluorescence | 577 | 512 | 25500 | 0.36 | noticeably activated | gradually increasing fluorescence intensity | 781 | 577 |  |  |
| CN1C(=O)/C(=C/c2ccc(N(C)CCO)cc2)N=C1/C=C/c1ccc(C#N)cc1 [IV-21] | bright fluorescence | no fluorescence | 624 | 534 | 26222 | 0.28 | noticeably activated | gradually increasing fluorescence intensity | 655 | 624 | could specifically label mRNA of ACTB | no obvious background fluorescence |
| CN1C(=O)/C(=C/c2ccc(N(C)CCO)cc2)N=C1/C=C/c1ccc(F)cc1 [IV-22] | bright fluorescence | no fluorescence | 580 | 522 | 32000 | 0.46 | noticeably activated | gradually increasing fluorescence intensity | 689 | 580 |  |  |
| CN1C(=O)/C(=C/c2ccc(N(C)CCO)cc2)N=C1/C=C/c1ccccc1 [IV-41, reference compound] |  |  |  |  |  |  |  |  |  |  |  | higher than that of IV-21 |
